Measured values as given in US20150328232A1, “PROSTACYLIN COMPOSITIONS AND METHODS FOR USING THE SAME” (INSMED INCORPRATION, priority 2012, published 2015).

Columns and labels:
[1] = Dialysis assay against PBS (treprostinil release); assay type: physicochemical; conditions: 5 mL dialyzed against 1 L 1×PBS, 50 kDa MW cutoff membrane
Method: The results of this study can be used as an indication of which compositions might provide a sustained release profile in vivo.
5 mL of each sample was dialyzed against 1 L of 1×PBS. […] sample was collected and tested by HPLC at different time points (FIG. 7). 250 μL sample was collected at 24 h. Each time a sample was collected, an equal volume of 1×PBS was added to the dialysis bag. Absorbance data was normalized to the calculated dilution factor.

EP2 prostanoid receptor = target: T1, EP2 prostanoid receptor (Homo sapiens, UniProt P43116); assay: GloSensor cAMP assay in CHO-K1 cells co-transfected with EP2 receptor; assay type: cell-based
T1 construct: host or cells: CHO-K1
T1 sequence (P43116 whole entry): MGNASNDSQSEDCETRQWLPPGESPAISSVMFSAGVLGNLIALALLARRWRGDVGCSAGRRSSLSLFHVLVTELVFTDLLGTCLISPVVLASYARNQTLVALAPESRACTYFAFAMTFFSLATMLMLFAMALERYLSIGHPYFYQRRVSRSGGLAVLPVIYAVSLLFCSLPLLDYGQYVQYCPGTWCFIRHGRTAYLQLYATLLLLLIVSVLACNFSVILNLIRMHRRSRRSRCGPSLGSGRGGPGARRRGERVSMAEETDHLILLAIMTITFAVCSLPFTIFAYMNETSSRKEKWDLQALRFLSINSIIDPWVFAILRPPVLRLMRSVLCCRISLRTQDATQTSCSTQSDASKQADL
Text: A cell based Chinese hamster ovary-K1 (CHO-K1) assay based on the GloSensor™ cAMP assay (Promega) was used to characterize the effect of treprostinil alkyl ester compounds on cAMP levels.
cAMP is a second messenger involved in signal transduction of G-protein coupled receptors (GPCRs) acting through Gα-s and Gα-i proteins. Because the treprostinil receptor is a GPCR, the assay provides an indication of whether the respective prostacyclin composition binds its receptor and activates the GPCR cell signaling cascade.
The GloSensor™ assay harnesses a genetically modified form of firefly luciferase into which a cAMP-binding protein moiety has been inserted. Upon binding of cAMP, a conformational change is induced leading to increased light output.
The EP2 prostanoid receptor was co-transfected with the GloSensor™ plasmid (Promega) into CHO-K1 cells as follows. CHO-K1 cells were harvested when the monoloayer was at 50-90% confluence. First, cells were washed with 5 mL PBS. […] Cell number was determined using a hemacytometer. […]
Following incubation, cells were treated and analyzed. […] Cell number was determined using a hemacytometer. […] Following an overnight incubation at 37° C. and 5% CO2 in a water-jacketed incubator, the cells were ready for use in cAMP response assays. […]

[2] = cited from earlier work

Row | Compound | rate of treprostinil release during dialysis [1] | sustained cAMP level (EP2 prostanoid receptor) | time to steady state plasma concentrations ([2]; continuous subcutaneous infusion, 1.25 to 22 ng/kg/min) | excreted in urine as identifiable metabolite ([2]; in vivo) | excreted in urine as unchanged drug ([2]; in vivo) | decrease of clearance ([2]; patients with hepatic insufficiency) | absolute bioavailability ([2]; subcutaneous administration) | elimination half-life ([2]; subcutaneous administration) | administered drug excreted in urine ([2]; unchanged drug or identifiable metabolite) | half-life ([2]; in vivo)
1 | CCCCC[C@H](O)CC[C@@H]1[C@H]2Cc3cccc(OCC(=O)O)c3C[C@H]2C[C@H]1O [treprostinil] | dialyzed out the fastest | not exhibited | about 10 hours | 64% | 4% | up to 80% | 100% | 4.6 h | Approximately 79% | –
2 | CCCCC[C@H](O)/C=C/[C@@H]1[C@H]2C/C(=C/CCCC(=O)O)O[C@H]2C[C@H]1O [epoprostenol] | – | – | – | – | – | – | – | – | – | 2 to 7 min
